Assay results as given in PMC11434868, “Synthesis and Antiproliferative Effect of 3,4,5-Trimethoxylated Chalcones on Colorectal and Prostatic Cancer Cells” (Pharmaceuticals, 2024).
Read-outs that look alike come from different tables or passages of the source.

Assays:
HCT116 = experiment: MTT assay, antiproliferative effect on HCT116; type: cell-based; details: Homo sapiens
Experimental: (§1) Human CRC (HCT116 and HT-29) and PCa (DU145 and PC3) cell lines were purchased from the American Type Culture Collection (ATCC—LGC Standards, Molsheim, France). All cells were grown in RPMI 1640 medium supplemented with 10% FBS, 1% L-glutamine, 100 U/mL penicillin, and 100 μg/mL streptomycin. Cultures were maintained in a humidified atmosphere containing 5% CO2 at 37 °C. Cells were seeded in 75 cm^2 culture flasks at 1.2 × 10^4 cells/cm^2 for HCT116, DU145, and PC3 cells, and 2.0 × 10^4 for HT-29 cells. Cells were grown for 24 h in culture medium prior to exposure or not to obtain the synthesized compounds. Stock solutions (10^−2 M in DMSO) of each compound were diluted in culture medium to obtain appropriate final concentrations.
(§2) • (a) MTT assay: The antiproliferative effect of all compounds was determined using MTT assay (a metabolic activity test). Briefly, cells were seeded in 96-well culture plates at 4 × 10^3 cells/well for HCT116, PC3, and DU145 cells and 6 × 10^3 cells/well for HT-29 cells (100 µL/well), and grown for 24 h in culture medium prior to exposure or not to obtain compounds 1–15 with concentrations ranging from 5 nM to 50 μM. After 24 and 48 h of treatment, MTT (5 mg/mL in PBS) was added and incubated for another 3 h. MTT was then removed from the wells before adding 100 μL/well of DMSO. The optical density was detected with a microplate reader (Multiskan FC, Thermoscientific, Bordeaux, France) at 550 nm and cell viability was expressed as a percentage of each treatment condition compared to control cells. IC50 values were calculated for all compounds from the dose–response curve. Data are expressed as the arithmetic means ± standard error of the mean (SEM) of separate experiments. All experiments were performed at least in triplicate. • (b) Trypan blue dye exclusion method: Cells were grown for 24 h then treated with compounds 10 and 13 at indicated concentrations. After 48 h of treatment, cells were trypsinized and resuspended in complete medium. Each sample was mixed with Trypan blue solution (0.14% in HBSS, Invitrogen-GIBCO, ThermoFisher, Illkirch, France). Colored (non-viable) and dye-excluding (viable) cells were counted with the LUNA-II automated cell Counter (Logos Biosystems; MC2, Aubière, France). The control was normalized to 100% including viable and dead cells. The results indicated on the histograms were expressed as the percentage of cells compared to the control. IC50 values were determined from the percentages of viable cells compared to the control.

HT-29 = experiment: MTT assay, antiproliferative effect on HT-29; type: cell-based, human
Experimental: as §1, §2

DU145 = experiment: MTT assay, antiproliferative effect on DU145; type: cell-based; details: Homo sapiens
Experimental: as §1, §2

PC3 = experiment: MTT assay, antiproliferative effect on PC3; type: cell-based; details: Homo sapiens
Experimental: as §1, §2

[1] = test system: cellular microtubules in HeLa cells; experiment: Quantitative assay of the cellular microtubule content (immunoluminescence); type: cell-based; details: 30 min incubation
Experimental: The assay was realized as described by Laisne et al.. Briefly, 7500 HeLa cells were seeded in 96-well microplates (#655086, Greiner bioOne, Courtaboeuf, France) in 100 µL of complete medium per well and then incubated at 37 °C in 5% CO2 for 24 h. Cells were then treated for 30 min at 37 °C with the compounds at concentrations ranging from 0.1 to 1000 µM (1 microplate per molecule, 1 concentration per column), with 0.1% DMSO used as […] (6 wells per microplate). After medium aspiration, treated cells were permeabilized for 10 min using 100 µL per well of warmed (37 °C) OPT buffer (80 mM Pipes, 1 mM EGTA, 1 mM MgCl2, 0.5% Triton X-100, and 10% glycerol, pH 6.8). Cells were fixed overnight at room temperature using 100 µL per well of 4% formaldehyde (Sigma Aldrich, #252549, Saint-Quentin-Fallavier, France) in PBS. Cells were washed 3 times in PBS, 0.1% Tween-20 (100 µL per well), then primary anti-alpha-tubulin antibody (clone α3A1), 1:5000 in PBS 2% Bovine Serum Albumin (BSA), was added for 45 min. Cells were washed twice again and secondary anti-mouse antibody coupled to HRP (1:2000 in PBS 2% BSA, #715-035-150, Jackson Immuno-Research Laboratories, Cambridgeshire, UK) was added for 45 min. Then, cells were washed again with PBS and 100 µL of ECL substrate (#170-5061, Bio-Rad Laboratories Inc., Hercules, CA, USA) was injected in each well using the FLUOstar OPTIMA Microplate Reader (BMG Lab technology, Champagny-sur-Marne, France). The luminescent signal was read immediately after ECL injection. IC50 values were calculated using GraphPad Prism software (10.3.1 version) and are presented in the text as means ± SEM of three independent experiments.

[2] = test system: human CRC (HCT116 and HT-29) and human PCa (DU145 and PC3) cell lines; experiment: MTT assay, summary statements over the cell lines; type: cell-based; details: Homo sapiens, 48 h; read-out: IC50 over the four cell lines
Experimental: as §1, §2

[3] = HCT-116, 24 h, read-out: IC50 HCT116 24 h
[4] = HCT-116, 48 h, read-out: IC50 HCT116 48 h
[5] = Homo sapiens, HT-29, 24 h, 24 h, read-out: IC50 HT-29 24 h
[6] = Homo sapiens, HT-29, 48 h, 48 h, read-out: IC50 HT-29 48 h
[7] = DU-145, 24 h, read-out: IC50 DU145 24 h
[8] = DU-145, 48 h, read-out: IC50 DU145 48 h
[9] = PC-3, 24 h, read-out: IC50 PC3 24 h
[10] = PC-3, 48 h, read-out: IC50 PC3 48 h
[11] = 48 h, read-out: IC50 HT-29 48 h

Row | Compound | IC50 (HCT116; [3]) [µM] | IC50 (HCT116; [4]) [µM] | IC50 (HT-29; [5]) [µM] | IC50 (HT-29; [6]) [µM] | IC50 (DU145; [7]) [µM] | IC50 (DU145; [8]) [µM] | IC50 (PC3; [9]) [µM] | IC50 (PC3; [10]) [µM] | activity against the HT-29 cell line (HT-29) | IC50 (HT-29; [11]) [µM] | melting point [°C] | IC50 depolymerization of cellular microtubules [1] | IC50 [2] [µM]
1 | COc1cc(O)ccc1/C=C/C(=O)c1cc(OC)c(OC)c(OC)c1 [chalcone 4, (E)-3-(4-hydroxy-2-methoxyphenyl)-1-(3,4,5-trimethoxyphenyl)prop-2-en-1-one] | 8.79 ± 0.39 | 3.98 ± 0.22 | 21.3 ± 0.94 | 17.7 ± 0.29 | 4.2 ± 0.2 | 2.69 ± 0.22 | 4.8 ± 0.48 | 3.05 ± 0.12 |  |  |  |  | 
2 | COc1cc(C(=O)/C=C/c2coc3ccc(O)cc3c2=O)cc(OC)c1OC [chalcone 15, (E)-6-hydroxy-3-(3-oxo-3-(3,4,5-trimethoxyphenyl)prop-1-en-1-yl)-4H-chromen-4-one] | 5.84 ± 0.28 | 14.1 ± 0.27 | > 50 |  | 3.88 ± 0.32 | 7.09 ± 0.52 | 6.48 ± 0.4 | 7.6 ± 0.44 | not active |  |  |  | 
3 | COc1cc(/C=C/C(=O)c2cc(OC)c(OC)c(OC)c2)ccc1O [chalcone 9, (E)-3-(4-hydroxy-3-methoxyphenyl)-1-(3,4,5-trimethoxyphenyl)prop-2-en-1-one] | 8.58 ± 0.28 | 3.48 ± 0.19 | 32.6 ± 0.51 | > 20 | 3.75 ± 0.15 | 2.41 ± 0.08 | 4.42 ± 0.24 | 2.97 ± 0.13 |  | 26.8 ± 0.4 |  |  | 
4 | COc1cc(C(=O)/C=C/c2ccccc2O)cc(OC)c1OC [chalcone 1, (E)-3-(2-hydroxyphenyl)-1-(3,4,5-trimethoxyphenyl)prop-2-en-1-one] | 4.54 ± 0.65 | 3.27 ± 0.11 | 10.8 ± 0.57 | 9.65 ± 0.12 | 5.33 ± 0.42 | 3.6 ± 0.1 | 5.04 ± 0.29 | 4.23 ± 0.35 |  |  |  |  | 
5 | COc1cc(C(=O)/C=C/c2coc3ccc(C(C)C)cc3c2=O)cc(OC)c1OC [chalcone 14, (E)-6-isopropyl-3-(3-oxo-3-(3,4,5-trimethoxyphenyl)prop-1-en-1-yl)-4H-chromen-4-one] | 15.3 ± 0.52 | 13.3 ± 0.3 | 22.9 ± 0.72 | 17 ± 1.41 | 13.2 ± 0.49 | 12.4 ± 0.2 | 14.11 ± 0.04 | 12.8 ± 0.37 |  |  | 183 to 185 |  | 
6 | COc1cc(C(=O)/C=C/c2coc3ccccc3c2=O)cc(OC)c1OC [chalcone 12, (E)-3-(3-oxo-3-(3,4,5-trimethoxyphenyl)prop-1-en-1-yl)-4H-chromen-4-one] | 14.2 ± 0.41 | 13.2 ± 0.4 | 13.6 ± 0.3 | 13.2 ± 0.42 | 10.8 ± 0.34 | 11.7 ± 0.29 | 11.5 ± 0.28 | 12.2 ± 0.23 |  |  | 215 to 217 |  | 
7 | COc1ccc(O)cc1/C=C/C(=O)c1cc(OC)c(OC)c(OC)c1 [chalcone 5, (E)-3-(5-hydroxy-2-methoxyphenyl)-1-(3,4,5-trimethoxyphenyl)prop-2-en-1-one] | 8.72 ± 0.41 | 4.92 ± 0.49 | 25.2 ± 1.28 | > 20 | 5.5 ± 0.26 | 4.37 ± 0.3 | 5.54 ± 0.31 | 4 ± 0.3 |  | 22.1 ± 0.48 |  |  | 
8 | COc1ccc(O)c(/C=C/C(=O)c2cc(OC)c(OC)c(OC)c2)c1 [chalcone 6, (E)-3-(2-hydroxy-5-methoxyphenyl)-1-(3,4,5-trimethoxyphenyl)prop-2-en-1-one] | 5.27 ± 0.37 | 3.44 ± 0.42 | 12.3 ± 0.37 | 10.6 ± 0.62 | 2.84 ± 0.14 | 2.7 ± 0.1 | 3.31 ± 0.22 | 2.81 ± 0.16 |  |  |  |  | 
9 | COc1cc(C(=O)/C=C/c2ccc(O)cc2)cc(OC)c1OC [chalcone 3, (E)-3-(4-hydroxyphenyl)-1-(3,4,5-trimethoxyphenyl)prop-2-en-1-one] | 11.62 ± 0.06 | 12.1 ± 0.44 | 17.9 ± 0.69 | 15.1 ± 0.46 | 11.3 ± 0.48 | 11.2 ± 0.44 | 10.94 ± 0.1 | 9.85 ± 0.43 |  |  |  | no effect | 
10 | COc1ccc(/C=C/C(=O)c2cc(OC)c(OC)c(OC)c2)c(O)c1 [chalcone 7, (E)-3-(2-hydroxy-4-methoxyphenyl)-1-(3,4,5-trimethoxyphenyl)prop-2-en-1-one] | 13.4 ± 0.21 | 3.99 ± 0.16 | 14.4 ± 0.65 | 11.4 ± 0.68 | 2.99 ± 0.33 | 1.33 ± 0.16 | 2.57 ± 0.44 | 1.47 ± 0.27 |  |  |  |  | 
11 | COc1cc(C(=O)/C=C/c2ccc(=O)[nH]c2)cc(OC)c1OC [chalcone 11, (E)-5-(3-oxo-3-(3,4,5-trimethoxyphenyl)prop-1-en-1-yl)pyridin-2(1H)-one] | 25.2 ± 0.48 | 16.6 ± 0.79 | 35.6 ± 0.94 | > 20 | 22.3 ± 0.76 | 15.6 ± 0.84 | 24.5 ± 0.64 | 17.7 ± 0.55 |  | 23.6 ± 0.37 | 217 to 219 |  | > 15
